The values below come from patent publication US8853418B2, “Cyclopentylpyrazoles as N-type calcium channel blockers” (Janssen Pharmaceutica NV, priority 2012, dated 2014).

In experiment [1] the target is N-type calcium channel (α1B (Cav2.2), β3 and α2δ subunits) (Homo sapiens, UniProt Q00975). In words: Functional Assay: Antagonism of N-Type Calcium Channel (FDSS calcium mobilization, KCl depolarization). Type of experiment: cell-based. To be noted: for IC50: HEK cell line, 50 mM KCl depolarization, six-point concentration-response, read-out: FDSS IC50. The essentials:
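HEK cells stably co-expressing α1B (Cav2.2), β3 and α2δ were loaded with calcium dye, then given compound with fluorescence recorded for 5 min before 50 mM KCl depolarisation and 3 min more reading. IC50 came from six-point curves of maximal fluorescence, normalised to KCl maximum and buffer minimum.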

In another experiment the target is N-type calcium channel (Homo sapiens, UniProt Q00975). In words: Automated Electrophysiology Assay (QPatch-HT whole-cell patch clamp; low- and high-frequency stimulation). Type of experiment: cell-based. For orientation: In patch-clamp work, channel activity is measured electrically.
N-type calcium channel, sequence (Q00975 whole entry): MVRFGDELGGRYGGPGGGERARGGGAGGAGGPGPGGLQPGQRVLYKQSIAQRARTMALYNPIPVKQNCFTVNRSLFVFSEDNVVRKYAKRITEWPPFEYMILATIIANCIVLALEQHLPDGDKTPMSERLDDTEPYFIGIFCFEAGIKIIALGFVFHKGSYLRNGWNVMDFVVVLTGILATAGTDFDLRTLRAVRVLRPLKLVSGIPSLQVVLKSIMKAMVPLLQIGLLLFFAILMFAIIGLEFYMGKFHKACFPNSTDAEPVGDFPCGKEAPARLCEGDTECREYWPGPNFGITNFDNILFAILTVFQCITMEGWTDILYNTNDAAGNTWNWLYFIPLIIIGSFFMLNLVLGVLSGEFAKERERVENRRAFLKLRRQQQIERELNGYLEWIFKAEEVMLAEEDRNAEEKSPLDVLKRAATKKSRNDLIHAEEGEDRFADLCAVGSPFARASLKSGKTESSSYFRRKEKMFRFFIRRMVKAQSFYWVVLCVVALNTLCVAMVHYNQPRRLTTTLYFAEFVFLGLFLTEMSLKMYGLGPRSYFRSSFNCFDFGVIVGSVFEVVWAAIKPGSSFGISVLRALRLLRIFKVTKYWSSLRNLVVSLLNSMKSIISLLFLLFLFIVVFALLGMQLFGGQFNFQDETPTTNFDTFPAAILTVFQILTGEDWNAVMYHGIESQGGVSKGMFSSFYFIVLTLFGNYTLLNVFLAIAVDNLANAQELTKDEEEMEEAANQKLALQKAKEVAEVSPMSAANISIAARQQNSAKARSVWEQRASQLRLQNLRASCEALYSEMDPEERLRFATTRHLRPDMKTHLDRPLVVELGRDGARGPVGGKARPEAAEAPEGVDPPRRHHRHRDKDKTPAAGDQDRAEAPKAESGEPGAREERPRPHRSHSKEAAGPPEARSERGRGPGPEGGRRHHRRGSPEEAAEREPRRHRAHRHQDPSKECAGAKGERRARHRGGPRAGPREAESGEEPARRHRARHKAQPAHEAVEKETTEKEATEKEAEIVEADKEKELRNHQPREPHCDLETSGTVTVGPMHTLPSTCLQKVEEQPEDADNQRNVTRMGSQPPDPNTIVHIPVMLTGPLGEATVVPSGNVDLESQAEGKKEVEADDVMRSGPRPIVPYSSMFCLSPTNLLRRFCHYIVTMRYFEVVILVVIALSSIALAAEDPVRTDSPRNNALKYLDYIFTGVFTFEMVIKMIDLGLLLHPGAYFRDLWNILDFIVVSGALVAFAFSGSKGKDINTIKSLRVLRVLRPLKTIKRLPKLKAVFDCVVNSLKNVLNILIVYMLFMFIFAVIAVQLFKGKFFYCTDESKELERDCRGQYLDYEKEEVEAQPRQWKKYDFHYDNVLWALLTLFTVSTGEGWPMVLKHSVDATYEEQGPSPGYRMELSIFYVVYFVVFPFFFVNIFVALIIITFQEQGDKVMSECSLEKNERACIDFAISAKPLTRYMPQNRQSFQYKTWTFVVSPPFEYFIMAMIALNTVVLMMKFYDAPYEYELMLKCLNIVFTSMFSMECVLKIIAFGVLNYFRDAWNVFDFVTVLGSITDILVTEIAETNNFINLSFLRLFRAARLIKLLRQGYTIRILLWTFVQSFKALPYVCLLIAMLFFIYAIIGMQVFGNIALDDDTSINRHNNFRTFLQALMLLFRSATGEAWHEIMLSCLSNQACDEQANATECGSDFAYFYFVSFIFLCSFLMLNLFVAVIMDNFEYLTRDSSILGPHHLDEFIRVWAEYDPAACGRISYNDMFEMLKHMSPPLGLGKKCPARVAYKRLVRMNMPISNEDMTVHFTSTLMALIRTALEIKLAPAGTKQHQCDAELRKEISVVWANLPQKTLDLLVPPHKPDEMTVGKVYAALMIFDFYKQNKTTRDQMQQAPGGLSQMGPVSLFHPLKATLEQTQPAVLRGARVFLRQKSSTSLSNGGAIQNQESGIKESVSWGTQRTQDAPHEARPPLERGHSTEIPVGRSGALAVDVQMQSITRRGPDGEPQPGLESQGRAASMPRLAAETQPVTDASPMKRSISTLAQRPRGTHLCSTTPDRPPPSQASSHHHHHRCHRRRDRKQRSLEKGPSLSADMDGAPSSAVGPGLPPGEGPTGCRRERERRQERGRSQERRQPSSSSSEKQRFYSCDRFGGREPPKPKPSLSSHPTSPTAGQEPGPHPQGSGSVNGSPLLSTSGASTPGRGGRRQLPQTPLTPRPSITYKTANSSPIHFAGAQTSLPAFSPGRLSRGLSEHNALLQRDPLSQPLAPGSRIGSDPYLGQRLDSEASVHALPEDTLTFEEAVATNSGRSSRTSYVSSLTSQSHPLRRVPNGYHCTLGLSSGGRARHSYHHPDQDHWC
N-type calcium channel, sequence (P54284 whole entry partner): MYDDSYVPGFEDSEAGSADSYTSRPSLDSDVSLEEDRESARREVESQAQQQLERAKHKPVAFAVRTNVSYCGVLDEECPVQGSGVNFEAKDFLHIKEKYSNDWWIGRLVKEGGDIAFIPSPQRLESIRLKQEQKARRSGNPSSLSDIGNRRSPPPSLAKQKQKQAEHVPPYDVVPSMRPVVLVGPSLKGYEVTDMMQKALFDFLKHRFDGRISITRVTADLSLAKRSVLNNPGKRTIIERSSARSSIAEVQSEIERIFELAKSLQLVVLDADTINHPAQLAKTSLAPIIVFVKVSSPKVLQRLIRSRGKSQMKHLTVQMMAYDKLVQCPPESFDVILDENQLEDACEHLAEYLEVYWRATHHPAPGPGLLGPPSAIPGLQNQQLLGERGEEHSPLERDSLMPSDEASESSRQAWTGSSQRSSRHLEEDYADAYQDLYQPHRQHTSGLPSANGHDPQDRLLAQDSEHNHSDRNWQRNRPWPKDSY
N-type calcium channel, sequence (P54289 25-946 partner limits assumed): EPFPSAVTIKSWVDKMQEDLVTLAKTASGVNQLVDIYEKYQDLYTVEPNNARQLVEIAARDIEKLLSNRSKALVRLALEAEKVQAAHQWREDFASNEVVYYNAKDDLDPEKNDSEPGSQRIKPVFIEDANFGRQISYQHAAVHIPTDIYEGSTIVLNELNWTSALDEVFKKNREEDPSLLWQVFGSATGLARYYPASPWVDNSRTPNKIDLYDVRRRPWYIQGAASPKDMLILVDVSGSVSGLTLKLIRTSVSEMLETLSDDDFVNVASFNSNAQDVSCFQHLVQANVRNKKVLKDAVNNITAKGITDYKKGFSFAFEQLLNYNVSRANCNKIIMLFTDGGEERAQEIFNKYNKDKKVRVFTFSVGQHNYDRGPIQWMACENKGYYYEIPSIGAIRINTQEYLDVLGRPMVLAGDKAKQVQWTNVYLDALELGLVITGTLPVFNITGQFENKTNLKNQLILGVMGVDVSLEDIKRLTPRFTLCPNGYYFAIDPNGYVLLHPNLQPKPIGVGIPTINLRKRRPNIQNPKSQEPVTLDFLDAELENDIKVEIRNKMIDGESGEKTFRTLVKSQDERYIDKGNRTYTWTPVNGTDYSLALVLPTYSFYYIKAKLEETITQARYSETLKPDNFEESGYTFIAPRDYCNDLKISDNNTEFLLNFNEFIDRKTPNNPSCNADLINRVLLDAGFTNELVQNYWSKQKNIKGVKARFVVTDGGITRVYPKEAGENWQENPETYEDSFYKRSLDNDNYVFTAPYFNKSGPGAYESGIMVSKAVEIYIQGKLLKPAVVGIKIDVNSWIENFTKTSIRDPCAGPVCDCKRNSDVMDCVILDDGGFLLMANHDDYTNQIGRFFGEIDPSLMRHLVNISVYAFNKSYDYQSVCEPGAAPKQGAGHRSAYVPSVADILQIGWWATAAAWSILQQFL
N-type calcium channel, sequence (P54289 947-1103 partner limits assumed): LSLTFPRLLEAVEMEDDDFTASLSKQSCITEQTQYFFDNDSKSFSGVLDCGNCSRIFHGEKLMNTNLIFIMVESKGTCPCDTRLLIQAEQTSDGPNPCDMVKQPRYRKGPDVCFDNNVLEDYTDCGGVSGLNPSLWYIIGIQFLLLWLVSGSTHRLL
Where [2] appears, read: high-frequency stimulation (15th pulse), read-out: QPatch at High Frequency % Inhibition.
The mark [3] stands for this setting: low frequency, read-out: QPatch at Low Frequency % Inhibition.

Read-outs that look alike come from different tables or passages of the source.

N-type calcium channel (α1B (Cav2.2), β3 and α2δ subunits), sequence (Q00975 whole entry): as the sequence (Q00975 whole entry) above
N-type calcium channel (α1B (Cav2.2), β3 and α2δ subunits), sequence (P54284 whole entry partner): as the sequence (P54284 whole entry partner) above
N-type calcium channel (α1B (Cav2.2), β3 and α2δ subunits), sequence (P54289 25-946 partner limits assumed): as the sequence (P54289 25-946 partner limits assumed) above
N-type calcium channel (α1B (Cav2.2), β3 and α2δ subunits), sequence (P54289 947-1103 partner limits assumed): as the sequence (P54289 947-1103 partner limits assumed) above

In the case of `COc1ccccc1-n1nc2c(c1-c1ccc(Cl)cc1)C[C@H](OC(C)C)C2` [Compound 67, (5S)-3-(4-chlorophenyl)-2-(2-methoxyphenyl)-5-(1-methylethoxy)-2,4,5,6-tetrahydrocyclopenta[c]pyrazole], in experiment [1], the inhibition at 0.33 µM came to 100% and the IC50 was 5.7 nM. Moreover, on N-type calcium channel (setting [2]), the inhibition at 0.1 µM amounted to 61%. In addition, the inhibition at 0.1 µM at N-type calcium channel (setting [3]) worked out at 48%.
In the case of `COc1ccccc1-n1nc2c(c1-c1ccc(Cl)cc1)CC(N1CCOCC1)C2` (centres unmarked) [Compound 68, 3-(4-chlorophenyl)-2-(2-methoxyphenyl)-5-morpholin-4-yl-2,4,5,6-tetrahydrocyclopenta[c]pyrazole], in experiment [1], the inhibition at 0.33 µM came out at 95% and the IC50 was found to be 16 nM. Further, the inhibition at 0.1 µM on N-type calcium channel (setting [2]) was found to be 31%. Further, the inhibition at 0.1 µM at N-type calcium channel (setting [3]) amounted to 33%.
For the compound `COc1ccccc1-n1nc2c(c1-c1ccc(Cl)cc1)C[C@H](O[Si](C)(C)C)C2` [Compound 69, (5S)-3-(4-chlorophenyl)-2-(2-methoxyphenyl)-5-[(trimethylsilyl)oxy]-2,4,5,6-tetrahydrocyclopenta[c]pyrazole], in experiment [1], the inhibition at 0.33 µM came to 93% and the IC50 worked out at 9.6 nM. For the same compound, the inhibition at 0.1 µM at N-type calcium channel (setting [2]) was 26%. In addition, the inhibition at 0.1 µM at N-type calcium channel (setting [3]) was determined as 15%.
Regarding `CCC(CC)C(=O)O[C@@H]1Cc2nn(-c3ccccc3OC)c(-c3ccc(Cl)cc3)c2C1` [Compound 70, (5S)-3-(4-chlorophenyl)-2-(2-methoxyphenyl)-2,4,5,6-tetrahydrocyclopenta[c]pyrazol-5-yl 2-ethylbutanoate], in experiment [1], the inhibition at 0.33 µM worked out at 96% and the concentration for half-maximal inhibition (IC50) was 15 nM. Besides, the inhibition at 0.1 µM at N-type calcium channel (setting [2]) worked out at 19%.
As for `COc1ccccc1-n1nc2c(c1-c1ccc(Cl)cc1)C[C@H](OC1CCCCO1)C2` (stereo partly drawn) [Compound 76, (5S)-3-(4-chlorophenyl)-2-(2-methoxyphenyl)-5-(tetrahydro-2H-pyran-2-yloxy)-2,4,5,6-tetrahydrocyclopenta[c]pyrazole], in experiment [1], the inhibition at 0.33 µM came to 92%. Besides, in experiment [1], the half-maximal inhibitory concentration (IC50) turned out to be 28 nM. The inhibition at 0.1 µM on N-type calcium channel (setting [2]) is 42%; at N-type calcium channel (setting [3]), 27%.
The like results for `COc1ccccc1-n1nc2c(c1-c1ccc(Cl)cc1)C[C@H](OC(=O)C1CCCCC1)C2` [Compound 78, (5S)-3-(4-chlorophenyl)-2-(2-methoxyphenyl)-2,4,5,6-tetrahydrocyclopenta[c]pyrazol-5-yl cyclohexanecarboxylate] were, in that order, 78%, 93 nM, 27% and 15%.
Regarding `COc1ccccc1-n1nc2c(c1-c1ccc(Cl)cc1)C[C@H](OC(=O)C1CCCC1)C2` [Compound 79, (5S)-3-(4-chlorophenyl)-2-(2-methoxyphenyl)-2,4,5,6-tetrahydrocyclopenta[c]pyrazol-5-yl cyclopentanecarboxylate], in experiment [1], the inhibition at 0.33 µM was determined as 82% and the IC50 is 75 nM. Moreover, the inhibition at 0.1 µM on N-type calcium channel (setting [2]) came out at 11%. The inhibition at 0.1 µM on N-type calcium channel (setting [3]) is -7%.
In the case of `COc1ccccc1-n1nc2c(c1-c1ccc(Cl)cc1)C[C@H](OC(=O)C1CCC1)C2` [Compound 80, (5S)-3-(4-chlorophenyl)-2-(2-methoxyphenyl)-2,4,5,6-tetrahydrocyclopenta[c]pyrazol-5-yl cyclobutanecarboxylate], in experiment [1], the inhibition at 0.33 µM was found to be 89% and the half-maximal inhibitory concentration (IC50) was determined as 31 nM. Further, at N-type calcium channel (setting [2]), the inhibition at 0.1 µM was found to be 22% and the inhibition at 1 µM was 43%. On N-type calcium channel (setting [3]), the inhibition at 0.1 µM was 7% and the inhibition at 1 µM stood at 6%.
Take `COc1ccccc1-n1nc2c(c1-c1ccc(Cl)cc1)C[C@H](OC(=O)C(C)C)C2` [Compound 81, (5S)-3-(4-chlorophenyl)-2-(2-methoxyphenyl)-2,4,5,6-tetrahydrocyclopenta[c]pyrazol-5-yl 2-methylpropanoate]: in experiment [1], the inhibition at 0.33 µM was 86% and the IC50 came out at 48 nM. Further, the inhibition at 0.1 µM at N-type calcium channel (setting [2]) stood at 12%. Further, at N-type calcium channel (setting [3]), the inhibition at 0.1 µM was -4%.
The like results for `COc1ccccc1-n1nc2c(c1-c1ccc(Cl)cc1)C[C@H](OCC(C)C)C2` [Compound 85, (5S)-3-(4-chlorophenyl)-2-(2-methoxyphenyl)-5-(2-methylpropoxy)-2,4,5,6-tetrahydrocyclopenta[c]pyrazole] were, in that order, 94%, 23 nM, 2% and -5%.
For the compound `COc1ccccc1-n1nc2c(c1-c1ccc(Cl)cc1)C[C@H](OC1CCCCC1)C2` [Compound 88, (5S)-3-(4-chlorophenyl)-5-(cyclohexyloxy)-2-(2-methoxyphenyl)-2,4,5,6-tetrahydrocyclopenta[c]pyrazole], the inhibition at 0.33 µM in experiment [1] was 83%. The half-maximal inhibitory concentration (IC50) in experiment [1] worked out at 43 nM. In addition, the inhibition at 0.1 µM at N-type calcium channel (setting [2]) came to 33%; at N-type calcium channel (setting [3]), 22%.
For `COc1ccccc1-n1nc2c(c1-c1ccc(Cl)cc1)C[C@H](O[C@H]1C[C@@H]3CC[C@H]1C3)C2` [Compound 89, (5S)-5-[(1S,2S,4R)-bicyclo[2.2.1]hept-2-yloxy]-3-(4-chlorophenyl)-2-(2-methoxyphenyl)-2,4,5,6-tetrahydrocyclopenta[c]pyrazole] the same measures were 85%, 49 nM, 26% and 6%.
With `COc1ccccc1-n1nc2c(c1-c1ccc(Cl)cc1)C[C@H](OC1CCCC1)C2` [Compound 90, (5S)-3-(4-chlorophenyl)-5-(cyclopentyloxy)-2-(2-methoxyphenyl)-2,4,5,6-tetrahydrocyclopenta[c]pyrazole], in experiment [1], the inhibition at 0.33 µM is 89% and the IC50 came to 22 nM. Further, at N-type calcium channel (setting [2]), the inhibition at 0.1 µM amounted to 21%. Also, the inhibition at 0.1 µM at N-type calcium channel (setting [3]) stood at 10%.
As to `COc1ccccc1-n1nc2c(c1-c1ccc(C#N)cc1)CC1(C2)OCC(C)(C)CO1` [Compound 91, 4-[2-(2-methoxyphenyl)-5′,5′-dimethyl-2,6-dihydro-4H-spiro[cyclopenta[c]pyrazole-5,2′-[1,3]dioxan]-3-yl]benzonitrile], in experiment [1], the inhibition at 0.33 µM was determined as 89% and the IC50 worked out at 19 nM. At N-type calcium channel (setting [2]), the inhibition at 0.01 µM was found to be 20%, the inhibition at 0.1 µM was found to be 39% and the inhibition at 1 µM came to 61%. Also, on N-type calcium channel (setting [3]), the inhibition at 0.01 µM came to 19%, the inhibition at 0.1 µM amounted to 28% and the inhibition at 1 µM was 40%.
On to `COc1ccccc1-n1nc2c(c1-c1ccc(N(C)C)cc1)CC1(C2)OCC(C)(C)CO1` [Compound 93, 4-[2-(2-methoxyphenyl)-5′,5′-dimethyl-2,6-dihydro-4H-spiro[cyclopenta[c]pyrazole-5,2′-[1,3]dioxan]-3-yl]-N,N-dimethylaniline], for which, in experiment [1], the inhibition at 0.33 µM amounted to 91% and the half-maximal inhibitory concentration (IC50) is 12 nM. In addition, the inhibition at 0.1 µM at N-type calcium channel (setting [2]) was 30%. Besides, on N-type calcium channel (setting [3]), the inhibition at 0.1 µM was determined as 12%.
For `COc1ccc(-c2c3c(nn2-c2ccccc2OC)CC2(C3)OCC(C)(C)CO2)cn1` [Compound 96, 2-(2-methoxyphenyl)-3-(6-methoxypyridin-3-yl)-5′,5′-dimethyl-2,6-dihydro-4H-spiro[cyclopenta[c]pyrazole-5,2′-[1,3]dioxane]] the same measures were 81%, 34 nM, 20% and -1%.
The like results for `COc1ccccc1-n1nc2c(c1-c1ccc(N(C)C)nc1)CC1(C2)OCC(C)(C)CO1` [Compound 97, 5-[2-(2-methoxyphenyl)-5′,5′-dimethyl-2,6-dihydro-4H-spiro[cyclopenta[c]pyrazole-5,2′-[1,3]dioxan]-3-yl]-N,N-dimethylpyridin-2-amine] were, in that order, 88%, 29 nM, 33% and 27%.
For the compound `COc1ccccc1-n1nc2c(c1-c1ccc(Cl)cc1)CC1(C2)O[C@H](C)[C@@H](C)O1` [Compound 98, (4′R,5′R)-3-(4-chlorophenyl)-2-(2-methoxyphenyl)-4′,5′-dimethyl-2,6-dihydro-4H-spiro[cyclopenta[c]pyrazole-5,2′-[1,3]dioxolane]], in experiment [1], the inhibition at 0.33 µM was 102% and the IC50 was found to be 5.9 nM. Besides, the inhibition at 0.1 µM on N-type calcium channel (setting [2]) is 28%. Also, at N-type calcium channel (setting [3]), the inhibition at 0.1 µM is -6%.
The like results for `COc1ccccc1-n1nc2c(c1-c1ccc(Cl)cc1)CC1(C2)O[C@@H](C)[C@H](C)O1` [Compound 99, (4′S,5′S)-3-(4-chlorophenyl)-2-(2-methoxyphenyl)-4′,5′-dimethyl-2,6-dihydro-4H-spiro[cyclopenta[c]pyrazole-5,2′-[1,3]dioxolane]] were, in that order, 93%, 13 nM, 34% and -4%.
As to `COc1ccccc1-n1nc2c(c1-c1ccc(Cl)cc1)CC1(C2)O[C@H](C)C[C@@H](C)O1` (stereo partly drawn) [Compound 100, (4′R,6′R)-3-(4-chlorophenyl)-2-(2-methoxyphenyl)-4′,6′-dimethyl-2,6-dihydro-4H-spiro[cyclopenta[c]pyrazole-5,2′-[1,3]dioxane]], in experiment [1], the inhibition at 0.33 µM is 101% and the concentration for half-maximal inhibition (IC50) turned out to be 4.4 nM. Also, at N-type calcium channel (setting [2]), the inhibition at 0.01 µM was 21%, the inhibition at 0.1 µM is 69% and the inhibition at 1 µM was determined as 83%. Further, at N-type calcium channel (setting [3]), the inhibition at 0.01 µM was 10%, the inhibition at 0.1 µM came to 46% and the inhibition at 1 µM amounted to 72%.

As a reminder, the inhibition is the drop in the measured response relative to a control, in per cent. Usually IC50 stands for the concentration at which inhibition is half-maximal.
